Data: patent publication US6903086B2, “Alkoxycarbonylamino benzoic acid or alkoxycarbonylamino tetrazolyl phenyl derivatives as IP antagonists” (SYNTEX (U.S.A.) LLC, priority 2001, dated 2005)

| melting point [°C] | SMILES |
| --- | --- |
| 127.5 to 134 | O=C(Nc1ccc(-c2ccccc2)cc1-c1nnn[nH]1)OCc1cc2cc(-c3cc(Cl)cc(Cl)c3)ccc2o1 [compound 502, [3-(1H-tetrazol-5-yl)-biphenyl-4-yl]-carbamic acid 5-(3,5-dichloro-phenyl)-benzofuran-2-ylmethyl ester] |
| 155 to 158 | O=C(Nc1ccccc1-c1nnn[nH]1)OCc1cc2cc(-c3ccc(F)cc3)ccc2o1 [compound 503, [2-(1H-tetrazol-5-yl)-phenyl]-carbamic acid 5-(4-fluoro-phenyl)-benzofuran-2-ylmethyl ester] |
| 121 to 138 | O=C(Nc1ccc(Br)cc1-c1nnn[nH]1)OCc1cc2cc(-c3ccc(F)cc3)ccc2o1 [compound 504, [4-bromo-2-(1H-tetrazol-5-yl)-phenyl]-carbamic acid 5-(4-fluoro-phenyl)-benzofuran-2-ylmethyl ester] |
| 209 to 211 | O=C(Nc1ccc(-c2ccc(F)cc2)cc1-c1nnn[nH]1)OCc1cc2cc(-c3ccc(F)cc3)ccc2o1 [compound 505, [4′-fluoro-3-(1H-tetrazol-5-yl)-biphenyl-4-yl]-carbamic acid 5-(4-fluoro-phenyl)-benzofuran-2-ylmethyl ester] |
| 121 to 125.2 | O=C(Nc1ccc(F)cc1-c1nnn[nH]1)OCc1cc2cc(-c3ccc(F)cc3)ccc2o1 [compound 506, [4-fluoro-2-(1H-tetrazol-5-yl)-phenyl]-carbamic acid 5-(4-fluoro-phenyl)-benzofuran-2-ylmethyl ester] |
| 166 to 190 | O=C(Nc1ccc(Br)cc1-c1nnn[nH]1)OCc1cc2cc(-c3ccccc3)ccc2o1 [compound 507, [4-bromo-2-(1H-tetrazol-5-yl)-phenyl]-carbamic acid 5-phenyl-benzofuran-2-ylmethyl ester] |
| 213 to 216.5 | O=C(Nc1ccccc1-c1nnn[nH]1)OCc1cc2cc(-c3ccccc3)ccc2o1 [compound 508, [2-(1H-tetrazol-5-yl)-phenyl]-carbamic acid 5-phenyl-benzofuran-2-ylmethyl ester] |
| 192 to 230 | O=C(Nc1ccc(-c2ccccc2)cc1-c1nnn[nH]1)OCc1cc2cc(-c3ccc(F)cc3)ccc2o1 [compound 509, [3-(1H-tetrazol-5-yl)-biphenyl-4-yl]-carbamic acid 5-(4-fluoro-phenyl)-benzofuran-2-ylmethyl ester] |
| 234.5 to 235.6 | O=C(Nc1ccc(-c2ccccc2)cc1C(=O)O)OCc1ccc(-c2ccccc2)cc1 [compound 601, 4-(biphenyl-4-ylmethoxycarbonylamino)-biphenyl-3-carboxylic acid] |
| 176.4 to 178.5 | Nc1cccc(NC(=O)OCc2cc3cc(-c4ccc(F)cc4)ccc3o2)c1C(=O)O [compound 701, 2-amino-6-[5-(4-fluorophenyl)benzofuran-2-ylmethoxycarbonylamino]benzoic acid] |
| 157.5 to 158.9 | O=C(Nc1cccc(Cl)c1C(=O)O)OCCOc1ccc(-c2ccccc2)cc1 [compound 801, 2-[2-(biphenyl-4-yloxy)-ethoxycarbonylamino]-6-chloro-benzoic acid] |
| 175.5 to 177.8 | Cc1ccc(NC(=O)OCCOc2ccc(-c3ccccc3)cc2)c(C(=O)O)c1 [compound 802, 2-[2-(biphenyl-4-yloxy)-ethoxycarbonylamino]-5-methyl-benzoic acid] |
